{"source": "patent US20100004267A1", "about": "“LIQUID PREPARATION” (ASUBIO PHARMA CO., LTD., priority 2006, published 2010)", "assay_type_in_all_cases": "physicochemical", "key": {"[1]": {"experiment": "Examination on prevention of light decomposition (Test example 5)", "protocol": "To 800 mL of purified water, 100 g of Captisol (available from CyDex Inc.) serving as a solubilizing agent, 1 g of sodium bisulfite (available from JUNSEI CHEMICAL) serving as an antioxidant, and 5 g of SUN N8075 were sequentially dissolved, and the volume was adjusted to precisely 1,000 mL with purified water, and filtered under reduced pressure. Then each 20 mL of the solution was filled into a colorless ampule (Silicoat ampule, white, 20 mL capacity, available from FUJI GLASS CO., LTD.) and a brown ampule (Silicoat ampule, brown, 20 mL capacity, available from FUJI GLASS CO., LTD.), and then the ampule was sealed. Using autoclave (FLC-M09S30WZ, available from SAKURA SEIKI Co., Ltd.), autoclave sterilization was conducted in a setting condition: 121° C./24 minutes.\nA sample of each of these ampules was stored under D65 lamp 2,000 Lux, and irradiated with 40, 80, 120×10^4 Lux, and then SUN N8075 related substances were measured with a HPLC device. The related substances were calculated as a peak ratio of the total related substances, relative to SUN N8075 peak area.\nTo 150 mL of purified water, a predetermined amount (none, 0.05 g, 0.1 g and 0.2 g) of sodium bisulfite (available from JUNSEI CHEMICAL) serving as an antioxidant, and 1 g of SUN N8075 were sequentially dissolved, and the volume was adjusted to precisely 200 mL with purified water. After filtering under reduced pressure, the solution was bubbled with nitrogen gas for 5 minutes. Then 20 mL of the solution was immediately filled into a brown ampule (Silicoat ampule, brown, 20 mL capacity, available from FUJI GLASS CO., LTD.) having subjected to nitrogen gas replacement, and then the ampule was sealed. Using autoclave (FLC-M09S30WZ, available from SAKURA SEIKI Co., Ltd.), autoclave sterilization was conducted in a setting condition: 121° C./24 minutes.\nA sample of each of these ampules was stored under D65 lamp 2,000 Lux, and irradiated with 40×10^4 Lux, and then SUN N8075 related substances were measured with a HPLC device. The related substances were calculated as a peak ratio of the total related substances, relative to SUN N8075 peak area.\nAs a control sample, 1 g of SUN N8075 was dissolved into 150 mL of purified water, and the volume was adjusted precisely to 200 mL with purified water. Then the solution was filtered under reduced pressure, and bubbled with nitrogen gas for 5 minutes. Then 20 mL of the solution was immediately filled into a brown ampule (Silicoat ampule, brown, 20 mL capacity, available from FUJI GLASS CO., LTD.) replaced with nitrogen gas, and then the ampule was sealed.\nThis was prepared as a control sample at the start of the test, and SUN N8075 related substances were measured in the similar manner."}, "[2]": {"experiment": "Examination on two-component antioxidant sodium bisulfite/L-cysteine hydrochloride monohydrate (Test example 6)", "protocol": "According to the formulation of Tables 7 and 8, to 100-150 mL of purified water, sodium bisulfite (Japanese Pharmacopoeia; available from JUNSEI CHEMICAL), L-cysteine hydrochloride monohydrate (available from Nacalai Tesque), and SUN N8075 were added and dissolved in this order, and the volume was made precisely to 200 mL by addition of purified water.\nAfter filtering under reduced pressure, the solution was bubbled with nitrogen gas for 5 minutes (not executed for the case “without nitrogen gas replacement”), and 20 mL of the solution was immediately filled into a brown ampule (Silicoat ampule, brown, 20 mL capacity, available from FUJI GLASS CO., LTD.) replaced with nitrogen gas (not executed for the case “without nitrogen gas replacement”), and then the ampule was sealed. Using autoclave (FLC-M09S30WZ, available from SAKURA SEIKI Co., Ltd.), autoclave sterilization was conducted in a setting condition: 121° C./24 minutes.\nFor each sample, insoluble foreign matters and odor were evaluated.\nEvaluation of insoluble foreign matters was conducted using an appearance checker (under 1,000 Lux).\nAlso dissolved oxygen concentration in solution was measured."}, "[3]": {"experiment": "Reduction in surface activity in SUN N8075 aqueous solution (Test example 7)", "design": "key: A: Much less foaming than Control; B: Clearly less foaming than Control; Slightly less foaming than Control; D: Comparable to Control; E: More foaming than Control", "protocol": "Into each test compound solution which was prepared in advance to achieve each adding concentration shown in the Table, SUN N8075 was added and dissolved so that the concentration thereof was 5 mg/mL, and the pH value was adjusted to 3 to 4 as appropriate by hydrochloric acid to prepare a sample solution.\nEach 10 mL of sample solution was put into a 10-mL stoppered test tube, and shaken 30 strokes vertically by hand and allowed to stand upright, and under room diffused light, appearance of sample solution after shaking, foaming property (foaming quantity), defoaming time, post standing observation (after standing for 3 days or more) were evaluated.\nAs a control, an aqueous solution containing no test substance but containing 5 mg/mL of SUN N8075 was examined in a similar manner."}, "[4]": {"conditions": "Control: without sodium bisulfite, brown ampule, Start"}, "[5]": {"conditions": "N2 gas replacement, sodium bisulfite 0.05%, brown ampule, irradiation 40 ×10^4 LUX"}, "[6]": {"conditions": "N2 gas replacement, sodium bisulfite 0.1%, brown ampule, irradiation 40 ×10^4 LUX"}, "[7]": {"conditions": "N2 gas replacement, sodium bisulfite […], brown ampule, irradiation 40 ×10^4 LUX"}, "[8]": {"conditions": "N2 gas replacement, without sodium bisulfite, brown ampule, irradiation 40 ×10^4 LUX"}, "[9]": {"conditions": "without N2 gas replacement, sodium bisulfite 0.1%, Captisol 10%, brown ampule, irradiation 40 ×10^4 LUX"}, "[10]": {"conditions": "without N2 gas replacement, sodium bisulfite 0.1%, Captisol 10%, brown ampule, irradiation 80 ×10^4 LUX"}, "[11]": {"conditions": "without N2 gas replacement, sodium bisulfite 0.1%, Captisol 10%, brown ampule, irradiation 120 ×10^4 LUX"}, "[12]": {"conditions": "without N2 gas replacement, sodium bisulfite 0.1%, Captisol 10%, colorless ampule, irradiation 40 ×10^4 LUX"}, "[13]": {"conditions": "without N2 gas replacement, sodium bisulfite 0.1%, Captisol 10%, colorless ampule, irradiation 80 ×10^4 LUX"}, "[14]": {"conditions": "without N2 gas replacement, sodium bisulfite 0.1%, Captisol 10%, colorless ampule, irradiation 120 ×10^4 LUX"}, "[15]": {"conditions": "sodium bisulfite 0.05% (0.1 g), L-cysteine HCl monohydrate 0.05 g (ratio 1/2), N2 done, dissolved oxygen 0.91 ppm"}, "[16]": {"conditions": "sodium bisulfite 0.05% (0.1 g), L-cysteine HCl monohydrate 0.1 g (ratio 1/1), N2 done, dissolved oxygen 0.88 ppm"}, "[17]": {"conditions": "sodium bisulfite 0.075% (0.15 g), L-cysteine HCl monohydrate 0.1 g (ratio 2/3), N2 done, dissolved oxygen 1.66 ppm"}, "[18]": {"conditions": "sodium bisulfite 0.075% (0.15 g), L-cysteine HCl monohydrate 0.5 g (ratio 1/1), N2 done, dissolved oxygen 0.97 ppm"}, "[19]": {"conditions": "sodium bisulfite 0.1% (0.2 g), L-cysteine HCl monohydrate 0.1 g (ratio 1/2), N2 done, dissolved oxygen 1.27 ppm"}, "[20]": {"conditions": "sodium bisulfite […] (0.05 g), L-cysteine HCl monohydrate 0.05 g (ratio 1/1), N2 done, dissolved oxygen 0.82 ppm"}}}
{"smiles": "Cc1cc(OC[C@@H](O)CN2CCN(c3ccc(Cc4ccc(F)cc4)cc3)CC2)c(C)c(C)c1N", "note": "[SUN N8075, (2S)-1-(4-amino-2,3,5-trimethylphenoxy)-3-{4-[4-(4-fluorobenzyl)phenyl]-1-piperazinyl}-2-propanol dimethane sulfonate]", "values": [{"measurement": "Related Substance Peak ratio", "setting": "[1]; [4]", "value": 0.629}, {"measurement": "SUN N8075 Peak ratio", "setting": "[1]; [4]", "value": 99.37}, {"measurement": "Related Substance Peak ratio", "setting": "[1]; [5]", "value": 0.608}, {"measurement": "SUN N8075 Peak ratio", "setting": "[1]; [5]", "value": 99.39}, {"measurement": "Related Substance Peak ratio", "setting": "[1]; [6]", "value": 0.567}, {"measurement": "SUN N8075 Peak ratio", "setting": "[1]; [6]", "value": 99.43}, {"measurement": "Related Substance Peak ratio", "setting": "[1]; [7]", "value": 0.581}, {"measurement": "SUN N8075 Peak ratio", "setting": "[1]; [7]", "value": 99.42}, {"measurement": "Related Substance Peak ratio", "setting": "[1]; [8]", "value": 0.967}, {"measurement": "SUN N8075 Peak ratio", "setting": "[1]; [8]", "value": 99.03}, {"measurement": "Related Substance Peak ratio", "setting": "[1]; [9]", "value": 1.140}, {"measurement": "SUN N8075 Peak ratio", "setting": "[1]; [9]", "value": 98.86}, {"measurement": "Related Substance Peak ratio", "setting": "[1]; [10]", "value": 1.301}, {"measurement": "SUN N8075 Peak ratio", "setting": "[1]; [10]", "value": 98.70}, {"measurement": "Related Substance Peak ratio", "setting": "[1]; [11]", "value": 1.750}, {"measurement": "SUN N8075 Peak ratio", "setting": "[1]; [11]", "value": 98.25}, {"measurement": "Related Substance Peak ratio", "setting": "[1]; [12]", "value": 4.552}, {"measurement": "SUN N8075 Peak ratio", "setting": "[1]; [12]", "value": 95.45}, {"measurement": "Related Substance Peak ratio", "setting": "[1]; [13]", "value": 4.953}, {"measurement": "SUN N8075 Peak ratio", "setting": "[1]; [13]", "value": 95.05}, {"measurement": "Related Substance Peak ratio", "setting": "[1]; [14]", "value": 5.987}, {"measurement": "SUN N8075 Peak ratio", "setting": "[1]; [14]", "value": 94.01}, {"measurement": "Amount of insoluble matters/after sterilization", "setting": "[2]; sodium bisulfite 0.05% (0.1 g), L-cysteine HCl monohydrate 0.03 g (ratio 3/10), N2 done, dissolved oxygen 1.85 ppm", "value": "bit"}, {"measurement": "Amount of insoluble matters/after sterilization", "setting": "[2]; [15]", "value": "great"}, {"measurement": "Odor/After sterilization", "setting": "[2]; [15]", "value": "Sulfur-"}, {"measurement": "Amount of insoluble matters/after sterilization", "setting": "[2]; [16]", "value": "great"}, {"measurement": "Odor/After sterilization", "setting": "[2]; [16]", "value": "Sulfur-"}, {"measurement": "Amount of insoluble matters/after sterilization", "setting": "[2]; sodium bisulfite 0.05% (0.1 g), no L-cysteine HCl monohydrate, N2 done, dissolved oxygen 0.82 ppm", "value": "bit"}, {"measurement": "Amount of insoluble matters/after sterilization", "setting": "[2]; sodium bisulfite 0.075% (0.15 g), L-cysteine HCl monohydrate 0.05 g (ratio 1/3), N2 done, dissolved oxygen 1.39 ppm", "value": "Bit"}, {"measurement": "Amount of insoluble matters/after sterilization", "setting": "[2]; [17]", "value": "great"}, {"measurement": "Odor/After sterilization", "setting": "[2]; [17]", "value": "Sulfur-"}, {"measurement": "Amount of insoluble matters/after sterilization", "setting": "[2]; [18]", "value": "great"}, {"measurement": "Odor/After sterilization", "setting": "[2]; [18]", "value": "Sulfur-"}, {"measurement": "Amount of insoluble matters/after sterilization", "setting": "[2]; sodium bisulfite 0.075% (0.15 g), no L-cysteine HCl monohydrate, N2 done, dissolved oxygen 1.24 ppm", "value": "bit"}, {"measurement": "Amount of insoluble matters/after sterilization", "setting": "[2]; [19]", "value": "great"}, {"measurement": "Odor/After sterilization", "setting": "[2]; [19]", "value": "Sulfur"}, {"measurement": "Amount of insoluble matters/after sterilization", "setting": "[2]; sodium bisulfite 0.1% (0.2 g), no L-cysteine HCl monohydrate, N2 done, dissolved oxygen 1.39 ppm", "value": "bit"}, {"measurement": "Amount of insoluble matters/after sterilization", "setting": "[2]; sodium bisulfite 0.1% (0.2 g), no L-cysteine HCl monohydrate, N2 not done, dissolved oxygen 5.14 ppm", "value": "bit"}, {"measurement": "Amount of insoluble matters/after sterilization", "setting": "[2]; sodium bisulfite […] (0.05 g), L-cysteine HCl monohydrate 0.015 g (ratio 3/10), N2 done, dissolved oxygen 1.88 ppm", "value": "Bit"}, {"measurement": "Amount of insoluble matters/after sterilization", "setting": "[2]; [20]", "value": "great"}, {"measurement": "Odor/After sterilization", "setting": "[2]; [20]", "value": "Sulfur-"}, {"measurement": "Amount of insoluble matters/after sterilization", "setting": "[2]; sodium bisulfite […] (0.05 g), no L-cysteine HCl monohydrate, N2 done, dissolved oxygen 0.52 ppm", "value": "bit"}, {"measurement": "Defoaming time", "setting": "[3]; Chlorobutanol 0.10%", "value": "D"}, {"measurement": "Defoaming time", "setting": "[3]; Sodium chloride 25 mM", "value": "D"}]}
